Measured values as given in US20230117592A1 (SRI International, priority 2019, published 2023).
Where “and” joins values, the source holds several entries; their conditions need not be identical. Identical values can stand only once. Like-named read-outs stand apart in the source and are kept apart here.

Legend:
5-LOX = target: T1, 5-LOX (Homo sapiens, UniProt P09917); experiment: 5-LOX fluorescent assay (in vitro lipoxygenase inhibition); type: biochemical; conditions: recombinant 5-LOX cell lysate, 20 μM AA, DHR123 fluorescence; several values in a cell = repeat determinations; read-out: IC50 (μM) values for in vitro lipoxygenase inhibition, 5-LOX
T1 sequence (P09917 1-674): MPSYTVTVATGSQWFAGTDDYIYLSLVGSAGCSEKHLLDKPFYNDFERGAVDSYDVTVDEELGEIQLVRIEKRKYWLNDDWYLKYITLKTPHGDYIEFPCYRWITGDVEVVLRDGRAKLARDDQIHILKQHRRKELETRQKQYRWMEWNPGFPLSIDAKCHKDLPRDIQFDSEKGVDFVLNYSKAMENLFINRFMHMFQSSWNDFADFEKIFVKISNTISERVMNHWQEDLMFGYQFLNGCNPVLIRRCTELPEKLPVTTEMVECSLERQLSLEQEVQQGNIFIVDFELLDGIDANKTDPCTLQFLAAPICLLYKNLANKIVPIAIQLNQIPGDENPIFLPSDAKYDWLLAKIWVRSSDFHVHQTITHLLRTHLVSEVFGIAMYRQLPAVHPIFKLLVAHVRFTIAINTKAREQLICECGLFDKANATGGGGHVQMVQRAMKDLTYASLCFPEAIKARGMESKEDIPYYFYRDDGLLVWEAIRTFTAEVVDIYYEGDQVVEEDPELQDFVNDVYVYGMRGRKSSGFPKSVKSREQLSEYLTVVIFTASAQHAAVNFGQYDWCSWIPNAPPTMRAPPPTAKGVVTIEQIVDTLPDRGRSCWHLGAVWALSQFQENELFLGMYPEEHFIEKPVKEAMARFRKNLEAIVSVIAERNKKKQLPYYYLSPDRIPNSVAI
Experimental: 5-LOX FI assay Fluorescent Assay
The enzyme assay (100 μL) contained 50 mM Tris, pH 7.5, 0.1 mM EDTA, 0.3 mM CaCl2, 20 μM AA, 100 μM ATP, 1 μM DHR123, and recombinant 5-LOX cell lysate (0.5 μL/100 μL). Inhibitors (dissolved in DMSO) were plated at 1 μL into 96-well assay microplates followed by a 40 μL addition of a solution containing 5-LOX enzyme. Enzyme was pre-incubated with compounds for 15 mins. The assay was initiated by the addition of a 40 μL substrate solution containing AA and ATP, and 20 μL addition of a solution containing DHR123. […] Percent inhibition was calculated for each compound dose for IC50 curve fitting using 4 Parameter Logistic Model or Sigmoidal Dose-Response Model.

12-LOX = target: T2, 12-LOX (Homo sapiens, UniProt P18054); experiment: 12-LOX fluorescent assay (in vitro lipoxygenase inhibition); type: biochemical
T2 sequence (P18054 1-663): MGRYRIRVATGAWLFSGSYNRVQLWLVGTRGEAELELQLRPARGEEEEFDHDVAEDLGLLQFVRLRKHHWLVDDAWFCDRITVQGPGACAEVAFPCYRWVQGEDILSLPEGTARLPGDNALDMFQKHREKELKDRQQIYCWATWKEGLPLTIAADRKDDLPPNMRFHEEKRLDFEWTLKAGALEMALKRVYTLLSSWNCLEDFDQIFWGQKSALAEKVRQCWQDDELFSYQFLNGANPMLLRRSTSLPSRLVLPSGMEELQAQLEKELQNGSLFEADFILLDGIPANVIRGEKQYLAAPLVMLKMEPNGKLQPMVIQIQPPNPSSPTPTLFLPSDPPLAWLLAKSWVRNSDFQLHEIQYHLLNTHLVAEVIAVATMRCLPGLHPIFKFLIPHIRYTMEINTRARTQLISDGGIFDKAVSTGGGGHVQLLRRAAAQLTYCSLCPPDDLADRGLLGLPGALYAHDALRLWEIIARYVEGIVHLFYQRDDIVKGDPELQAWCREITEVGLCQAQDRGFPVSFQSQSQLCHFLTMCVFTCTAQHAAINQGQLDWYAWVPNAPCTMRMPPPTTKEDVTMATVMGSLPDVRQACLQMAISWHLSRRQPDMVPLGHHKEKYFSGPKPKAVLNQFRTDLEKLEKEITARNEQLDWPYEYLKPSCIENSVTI
Experimental: 12-LOX/15-LOX Fluorescent Assay
The enzyme assay (100 ul) contained 50 mM Tris, pH 7.5, 0.05% Tween-20, 20 μM AA/LA, 1 μM DHR123, and 100 nM recombinant 12-LOX enzyme/50 nM recombinant 15-LOX enzyme. Inhibitors (dissolved in DMSO) were plated at 1 μL into 96-well assay microplates followed by a 40 μL addition of a solution containing 12-LOX/15-LOX enzyme. Enzyme was pre-incubated with compounds for 15 mins. The assay was initiated by the addition of a 40 μL substrate solution containing AA/LA, and 20μL addition of a solution containing DHR123. […] Percent inhibition was calculated for each compound dose for IC50 curve fitting using 4 Parameter Logistic Model or Sigmoidal Dose-Response Model.

[1] = 100 nM recombinant 12-LOX, 20 μM AA, DHR123 fluorescence, several values in a cell = repeat determinations, read-out: IC50 (μM) values for in vitro lipoxygenase inhibition, 12-LOX

| SMILES | IC50 (5-LOX) | IC50 (12-LOX; [1]) | IC50 (12-LOX) |
| --- | --- | --- | --- |
| Fc1ccc(Nc2ccc(NCC3(CN4CCOCC4)COC3)c(C(F)(F)F)c2)cc1 | 0.06 µM | 0.04 µM |  |
| COc1ccc(CNc2cccc(N)c2OCCN(C)C)cc1 [SS20308-0025-01, 2-(2-(dimethylamino)ethoxy)-N^1-(4-methoxybenzyl)benzene-1,3-diamine] | 7.31 µM | 1.29 µM |  |
| CCOC(=O)c1ccc(Nc2ccccc2OCCn2cncn2)cc1 [SS20308-0033-01, ethyl 4-(2-(2-(1H-1,2,4-triazol-1-yl)ethoxy)phenylamino)benzoate] | 50.3 µM | 23.9 µM |  |
| COc1ccc(CNc2cccc(Nc3ccccc3)c2OCCN(C)C)cc1 [SS20308-0052-01, 2-(2-(dimethylamino)ethoxy)-N^1-(4-methoxybenzyl)-N^3-phenylbenzene-1,3-diamine] | 1.32 µM | 0.62 µM |  |
| COc1ccc(CNc2ccc3c(-c4ccccc4)cc(=O)[nH]c3c2OCCN(C)C)cc1 [SS20308-0053-01, 8-(2-(dimethylamino)ethoxy)-7-((4-methoxybenzyl)amino)-4-phenylquinolin-2(1H)-one] | 3.36 µM | 5.2 µM |  |
| CCOC(=O)c1ccc(Nc2cccc(Nc3ccccc3)c2OCCn2cncn2)cc1 [SS20308-0055-01, ethyl 4-(2-(2-(1H-1,2,4-triazol-1-yl)ethoxy)-3-(phenylamino)phenylamino)benzoate] | 3.33 µM | 1.64 µM |  |
| CN(C)CCOc1c(NCc2ccccc2)cccc1Nc1ncccc1Cl [SS20308-0071-01, N^1-benzyl-N^3-(3-chloropyridin-2-yl)-2-(2-(dimethylamino)ethoxy)benzene-1,3-diamine] | 5.73 µM | 4.9 µM |  |
| CN(C)CCOc1c(Nc2ccccc2)ccc2c(-c3ccccc3)cc(=O)[nH]c12 [SS20308-0072-01, 8-(2-(dimethylamino)ethoxy)-4-phenyl-7-(phenylamino)quinolin-2(1H)-one] | 7.23 µM | 3.37 µM |  |
| c1ccc(Nc2ccc(-c3ccccc3)c(NCCn3cncn3)c2)cc1 [SS20308-0095-01, N^2-(2-(1H-1,2,4-triazol-1-yl)ethyl)-N^4-phenylbiphenyl-2,4-diamine] | 0.35 µM |  | 0.18 µM |
| c1ccc(CNc2ccc(-c3ccccc3)c(NCCn3cncn3)c2)cc1 [SS20308-0096-01, N^2-(2-(1H-1,2,4-triazol-1-yl)ethyl)-N^4-benzyl-[1,1′-biphenyl]-2,4-diamine] | 0.55 µM | 0.24 µM |  |
| CN(C)CCNc1cc(Nc2ccccc2)ccc1-c1ccccc1 [SS20308-0130-01, N2-(2-(dimethylamino)ethyl)-N4-phenyl-[1,1′-biphenyl]-2,4-diamine] | 0.24 µM | 0.25 µM |  |
| CN(CCn1cncn1)c1cc(Nc2ccccc2)ccc1-c1ccccc1 [SS20308-0131-01, N2-(2-(1H-1,2,4-triazol-1-yl)ethyl)-N2-methyl-N4-phenyl-[1,1′-biphenyl]-2,4-diamine] | 0.25 µM |  |  |
| c1ccc(Nc2ccc(-c3ccccc3)c(OCCn3cncn3)c2)cc1 [SS20308-0132-01, 2-(2-(1H-1,2,4-triazol-1-yl)ethoxy)-N-phenyl-[1,1′-biphenyl]-4-amine] | 0.6 µM |  | 0.49 µM |
| Cc1cccc(C)c1-c1ccc(Nc2ccccc2)cc1NCCn1cncn1 [SS20308-0133-01, N2-(2-(1H-1,2,4-triazol-1-yl)ethyl)-2′,6′-dimethyl-N4-phenyl-[1,1′-biphenyl]-2,4-diamine] | 0.22 µM | 0.14 µM |  |
| O=C(CCn1cncn1)Nc1cc(Nc2ccccc2)ccc1-c1ccccc1 [SS20308-0134-01, N-(4-(phenylamino)-[1,1′-biphenyl]-2-yl)-3-(1H-1,2,4-triazol-1-yl)propanamide] | 2.32 µM | 1.49 µM |  |
| O=C(Nc1ccc(-c2ccccc2)c(NCCn2cncn2)c1)c1ccccc1 [SS20308-0135-01, N-(2-((2-(1H-1,2,4-triazol-1-yl)ethyl)amino)-[1,1′-biphenyl]-4-yl)benzamide] | 25.7 µM | 20.8 µM |  |
| Fc1ccc(Nc2ccc(-c3ccccc3)c(NCCn3cncn3)c2)cc1 [SS20308-0142-01, N^2-(2-(1H-1,2,4-triazol-1-yl)ethyl)-N^4-(4-fluorophenyl)biphenyl-2,4-diamine] | 0.18 µM and 0.34 µM | 0.09 µM and 0.17 µM |  |
| OCc1ccccc1-c1ccc(Nc2ccccc2)cc1NCCn1cncn1 [SS20308-0143-01, (2′-(2-(1H-1,2,4-triazol-1-yl)ethylamino)-4′-(phenylamino)biphenyl-2-yl)methanol] | 0.94 µM | 0.33 µM |  |
| COc1ccccc1-c1ccc(Nc2ccccc2)cc1NCCn1cncn1 [SS20308-0144-01, N^2-(2-(1H-1,2,4-triazol-1-yl)ethyl)-2′-methoxy-N^4-phenylbiphenyl-2,4-diamine] | 0.4 µM | 0.18 µM |  |
| c1ccc(CNc2ccc(NCCn3cncn3)c(-c3ccccc3)c2)cc1 [SS20308-0145-01, N^2-(2-(1H-1,2,4-triazol-1-yl)ethyl)-N^5-benzyl-[1,1′-biphenyl]-2,5-diamine] | 30 nM and 50 nM (2×) | 0.02 µM |  |
| O=C(Nc1ccc(NCCn2cncn2)c(-c2ccccc2)c1)c1ccccc1 [SS20308-0146-01, N-(6-((2-(1H-1,2,4-triazol-1-yl)ethyl)amino)-[1,1′-biphenyl]-3-yl)benzamide] | 3.77 µM | 4.02 µM |  |
| Clc1ccc(-c2ccc(Nc3ccccc3)cc2NCCn2cncn2)cc1 [SS20308-0147-01, N^2-(2-(1H-1,2,4-triazol-1-yl)ethyl)-4′-chloro-N^4-phenylbiphenyl-2,4-diamine] | 0.17 µM | 0.14 µM |  |
| Fc1c(Nc2ccccc2)ccc(-c2ccccc2)c1NCCn1cncn1 [SS20308-0148-01, N^2-(2-(1H-1,2,4-triazol-1-yl)ethyl)-3-fluoro-N^4-phenylbiphenyl-2,4-diamine] | 3.77 µM and 0.76 µM |  |  |
| OCCc1ccccc1-c1ccc(Nc2ccccc2)cc1NCCn1cncn1 [SS20308-0149-01, 2-(2′-(2-(1H-1,2,4-triazol-1-yl)ethylamino)-4′-(phenylamino)biphenyl-2-yl)ethanol] | 0.63 µM | 0.3 µM |  |
| c1ccc(Nc2ccc(NCCCn3cncn3)c(-c3ccccc3)c2)cc1 [SS20308-0151-01, N^2-(3-(1H-1,2,4-triazol-1-yl)propyl)-N^5-phenylbiphenyl-2,5-diamine] | 0.07 µM and 0.04 µM |  | 0.02 µM |
| c1ccc(Nc2cccc(-c3ccccc3)c2NCCn2cncn2)cc1 [SS20308-0153-01, N^2-(2-(1H-1,2,4-triazol-1-yl)ethyl)-N^3-phenylbiphenyl-2,3-diamine] | 0.71 µM | 0.2 µM |  |
| Cc1cc(Nc2ccc(F)cc2Cl)ccc1NCC1(CN2CCCC2)COC1 [SS20308-0310-01, N^4-(2-chloro-4-fluorophenyl)-2-methyl-N^1-((3-(pyrrolidin-1-ylmethyl)oxetan-3-yl)methyl)benzene-1,4-diamine] | 0.11 µM and 0.14 µM and 0.1 µM and 0.19 µM and 0.29 µM |  |  |
